“Also recorded” adds a separate entry of the source.
How the values were obtained:
[1] = test system: murine HSCs (LKS CD150+CD48−); experiment: Mitochondrial membrane potential by TMRM staining and flow cytometry in cultured mHSCs; format: cell-based, mouse; conditions: compared to Basal condition; NR 500 uM, Vit B12 (MC) 100 uM; day 3 of culture
Procedure: Flow cytometry analysis was performed on freshly isolated bone marrow (BM) from C57BI6 mice. BM was extracted from crushed femora and tibia. Cell suspension was filtered through a 70 μm cell strainer and erythroid cells were eliminated by incubation with red blood cell lysis buffer (eBioscences). Isolation and stains were performed in ice-cold PBS 1 mM EDTA. Lineage positive cells were then removed with a magnetic lineage depletion kit (BD biosciences). Cell suspensions were then stained with specific antibodies for the stem cell compartment and sorted by FACS (BD FACS Aria III) into 1.5 ml Eppendorf tubes.
The following antibodies were used in this study: rat mAbs against cKit (2B8), Sca1 (D7), CD150 (TC-15-12F12.2), CD48 (HM48-1). The antibodies were purchased from Biolegend, eBiosciences and BD. A mixture of biotinylated mAbs against CD3, CD11b, CD45R/B220, Ly-6G, Ly-6C and TER-119 was used as lineage marker (“lineage cocktail”) and was purchased from BD. DAPI or propidium iodine (PI) staining was used for live/dead cell discrimination.
Murine HSCs were sorted into 1.5 ml Eppendorf tubes and were cultured in Stemline II (SIGMA) supplemented with 100 ng/ml SCF (R&D) and 2 ng/ml Flt3 (R&D). This was defined as the basal condition. Different concentrations as indicated of NR and Vit B12 (MC) were added in specific wells. NR was supplemented every 24 hours.
Mouse HSCs already in culture were incubated at 37° C. for 1 hour with 200 nM tetramethylrhodamine methyl ester (TMRM; Invitrogen) and 100 nM Mitotracker green. Cells were then washed with FACS buffer and analysed by flow cytometry on a BD LSR II.
Freshly FACS sorted mHSCs (LKS CD150+CD48−) were cultured in basal media (Stemline+SCF+FLT3L) supplemented with UroA, NR and MC in specific wells (as indicated). Cells were harvested at day 3 and stained with tetramethylrhodamine methyl ester (TMRM; to measure mitochondria membrane potential) and Mitotracker (to measure mitochondrial mass), and analysed by flow cytometry.

[2] = test system: human HSCs; conditions: culture media supplemented with nicotinamide riboside, primary and secondary recipient humanised mice; cited from earlier work

Row | Compound | TMRM fluorescent intensity (Mean Fluorescence Intensity, MFI) [1] | proportion of cells in the TMRM low gate [1] | levels of engraftment [2] | long-term blood production [2]
1 | C/C1=C2/[N-][C@H]([C@H](CC(N)=O)[C@@]2(C)CCC(=O)NC[C@@H](C)OP(=O)([O-])O[C@H]2[C@@H](O)[C@@H](n3cnc4cc(C)c(C)cc43)O[C@@H]2CO)[C@]2(C)N=C(/C(C)=C3N=C(/C=C4N=C1[C@@H](CCC(N)=O)C\4(C)C)[C@@H](CCC(N)=O)[C@]\3(C)CC(N)=O)[C@@H](CCC(N)=O)[C@]2(C)CC(N)=O.[CH3-].[Co] [MC, methylcobalamine] | significantly decreased; also recorded: decreases | significantly increased; also recorded: increases |  | 
2 | NC(=O)c1ccc[n+]([C@@H]2O[C@H](CO)[C@@H](O)[C@H]2O)c1 [NR, Nicotinamide riboside] | significantly decreased; also recorded: decreases | significantly increased; also recorded: increases | significantly higher levels of engraftment | capable of sustaining long-term blood production

From US20230365933A1, “COMPOSITIONS AND METHODS FOR INCREASING STEM CELL FUNCTION” (SOCIETE DES PRODUITS NESTLE S.A., priority 2020, published 2023)
